According to PMC10883997, “Multiparametric in vitro and in vivo analysis of the safety profile of self-assembling peptides” (Scientific Reports, 2024):
The star is where a group is joined. Biotin = O=C1N[C@H]2[C@H](CS[C@H]2CCCCC(=O)*)N1

Key:
[1] = system: TK6 human lymphoblastoid cell line; test: Thymidine kinase gene mutation assay (TK GMA); format: cell-based; conditions: TK6 cells, 4 h exposure, negative control 5.4 × 10^–6
Procedure: (§1) The general guidance from OECD TG 487 and 490 were followed[26],[41]. TK6 cell suspensions were treated with serially diluted SAPs molecules at 37 °C for 4 h, washed and resuspended in fresh medium, and cultured in new flasks for the MN and TK assays. We conducted the MN test and the TK mutation assay 48 h and 72 h later, respectively.
To measure genotoxicity, cells were subcultured at a maximum density of 2.5 × 10^5 cells/mL (at most 20 × 0^6 cells) for 3 additional days to allow phenotypic expression of the TK gene prior to mutant selection. Forty-eight hours after treatment, the cells were prepared for the MN assay. […] At least 2000 intact cells for each treatment were examined, and the cells containing MN were scored. Cells containing one or more micronuclei were recorded as micronucleated cells. […] The MN frequencies between non-treated and treated cells and the concentration–response relationship were statistically analyzed. […]
The cultures were maintained for another 24 h to allow phenotypic expression prior to plating for TK assay to determine the mutant fractions. […] Mutation frequencies (MFs) were finally calculated from cells grown in TFT selection medium or non-selection medium (for 7 days) via the Poisson distribution method. […] Changes in MFs relative to the negative controls (fold-change) were calculated and expressed graphically.

[2] = system: TK6 human lymphoblastoid cell line; test: In vitro micronucleus (MN) assay; format: cell-based; conditions: 4 h exposure, scored 48 h after exposure, 2000 cells per culture, three independent experiments
Procedure: as §1
To measure genotoxicity, cells were subcultured at a maximum density of 2.5 × 10^5 cells/mL (at most 20 × 0^6 cells) for 3 additional days to allow phenotypic expression of the TK gene prior to mutant selection. Forty-eight hours after treatment, the cells were prepared for the MN assay. Briefly, a small portion of cell culture from the flask was transferred to a 15 mL tube and centrifuged at 1200 rpm for 5 min at RT. The supernatant was then removed, and the pelleted cells were resuspended in PBS and placed in a cytospin funnel where cells were cytospun for 4 min at 900 rpm on microscope coverslips. A Diff-Quik staining was performed for microscope scoring. At least 2000 intact cells for each treatment were examined, and the cells containing MN were scored. Cells containing one or more micronuclei were recorded as micronucleated cells. […] The MN frequencies between non-treated and treated cells and the concentration–response relationship were statistically analyzed. […]

[3] = system: female Sprague–Dawley rats; test: In vivo acute systemic toxicity of SAPs, subcutaneous injection; design: species or system Rattus norvegicus; conditions: for Body weights at the beginning of the experiment (means) / Body weight at the end of the experiment (means): single s.c. injection 10 mL/kg, mean ± SD, n = 5; for Body weights at the beginning of the experiment (means): day 0; for Body weight at the end of the experiment (means): day 5
Procedure: The general guidance from the ISO10993 to Biological evaluation of medical devices was followed. Animals were housed in plastic cages with free access to drinking water and a pelleted basal diet under controlled conditions of temperature (22 °C ± 3 °C), humidity (50 ± 10%) and light (12/12 h light/dark cycle). Rats were quarantined for the first 7 days and randomly divided into experimental and control groups. All animals were bred and maintained at CIBA (Biomedical Research Center of Aragon; Department of Experimental Surgery). Animal experimentation was approved by the Ethics Committee for Animal Experimentation from the University of Zaragoza (protocol number PI31/22), and all authors complied with the ARRIVE guidelines.SAPs or electrospun mats, empty micro-channels, and HS-filled micro-channels were subcutaneously administered to female Sprague–Dawley rats (Rattus norvegicus) 7 weeks old, non-pregnant, and nulliparous. The concentration of each SAP was: HS: 1%, 68: 3%, 46: 5%, C1: 3%, 65L: 3% and B42: 1%. On the day before administration, the animals were weighed, and the hair of their thoracic back was shaved. On day 1, the different SAPs were administered in one single dose by subcutaneous injection to each rat corresponding to each group. To devices, a skin incision of about 1 cm and subcutaneous dissection were performed under sterile conditions. Then, the products provided were introduced into the subcutaneous space, one piece per animal. Animals were weighed. Animals were euthanized by trained personnel using medical-grade Carbon dioxide (CO2). CO2 inhalation is the most common method of euthanasia used for small animals (i.e., mice, rats, guinea pigs, and hamsters). It is considered an acceptable euthanasia agent for small animals when properly administered. It was accepted by the Ethics Committee for Animal Experimentation from the University of Zaragoza (protocol number PI31/22). For histological assessment, lung, liver, spleen, kidneys, and duodenum were removed from rats, fixed with 4% paraformaldehyde, and embedded in paraffin. Sections from these samples were stained with hematoxylin and eosin (H&E). Blood samples were drawn at the end of the study by cardiac puncture. They were analysed with VetScan V2.
Data are expressed by mean ± standard deviation of the mean. Body weight comparison between groups was assessed using the repeated measures two-way ANOVA test. Bonferroni posthoc multiple comparisons were also used. Analysis of biochemical parameters was made with one-way ANOVA. They were performed using GraphPad Prism 8 (8.0.2).

[4] = system: Mouse Embryonic Fibroblasts (MEFs); test: Scratch wound (wound healing) assay, fibroblasts; format: cell-based; conditions: MEF fibroblasts, 0.01 mg/mL, IncuCyte scan every 4 h; three independent experiments
Procedure: Prior to initiating the assay, cells were grown to confluence in a 96-well plate at 37 °C in an atmosphere of 5% CO2 and, with the help of a 96-pin IncuCyte® Wound Maker simultaneously created precise and reproducible wounds in all wells of a 96-well plate by gently removing the cells from the confluent monolayer. After wounding, immediately aspirate the media from each well and wash the cells twice with culture media (100 µL/well). After washing, 100 µL of media containing 0.01 mg/mL of the appropriate agent was added to the corresponding well, and the plate was placed inside the IncuCyte. Assay plates were then equilibrated within the IncuCyte® for a minimum of 15 min before the first scan. The software was set to scan the plate every 4 h for migration assays.

[5] = rat blood at day 5, VetScan V2, one-way ANOVA, within expected reference values

Compound	mutant frequency (MF) ([1]; Mit C 8.3 µg/mL (positive control))	mutant frequency (MF) ([1]; Mit C 25 µg/mL (positive control))	percentage of micronucleated cells versus negative control [2]	Sodium blood test (NA+) compared with the control group [3, 5]	albumin (ALB) levels compared with the control group ([3]; rat blood, cardiac puncture at day 5, VetScan V2, one-way ANOVA, all group means incl. control slightly above reference)	body weight evolution versus control group ([3]; rats, s.c. 10 mL/kg, days 0, 2, 5, two-way ANOVA, p = 0.03, no significant change at single time points)	Body weights at the beginning of the experiment (means) ([3]; rats)	Body weight at the end of the experiment (means) ([3]; rats)	globulin blood tests (GLOB) compared with the control group [3, 5]	cell migration versus control (area under relative wound density % vs time curve) [4]
CO[C@@]12[C@H](COC(N)=O)C3=C(C(=O)C(C)=C(N)C3=O)N1C[C@@H]1N[C@@H]12 [Mit C, Mitomycin C]	14.6 × 10^–6	175.3 × 10^–6	significant increase	–	–	–	–	–	–	–
Ac-FAQRVPPGGG(LDLD)3-CONH2 [compound 68]	–	–	–	increased	Significant higher	significantly different	238.1 ± 8.05 g	247.9 ± 7.60 g	–	–
Biotin-GGGAFASAKA-NH2 [B42]	–	–	–	–	–	–	243.8 ± 9.10 g	260.8 ± 10.9 g	–	–
FAQRVPPGGG(LDLK)3-CONH2 [compound 46]	–	–	–	–	–	–	250.5 ± 9.10 g	265.2 ± 8.20 g	increased	reduced cell migration
